PMC9064817 (RSC Advances, 2019)
Like-named read-outs stand apart in the source and are kept apart here.

Key:
[1] = system: tubulin; assay: fluorescence-based tubulin polymerization assay; assay type: biochemical, Bos taurus; details: read-out: Anti-tubulin activity (IC50)
[2] = system: tubulin; assay: fluorescence-based tubulin polymerization assay; assay type: biochemical, Bos taurus; details: read-out: Anti-tubulin activity (IC50); remark: listed apart in the source

## COc1cccc(NC(=O)c2cccc3c2Nc2cccc(Cl)c2N3C)c1 [8a, 6-Chloro-N-(3-methoxyphenyl)-5-methyl-5,10-dihydrophenazine-1-carboxamide]
[1]
  IC50: 2640 nM

## CN1c2cccc(C(=O)Nc3cccnc3)c2Nc2cccc(Cl)c21 [8l, 6-Chloro-5-methyl-N-(pyridin-3-yl)-5,10-dihydrophenazine-1-carboxamide]
[1]
  IC50: 2360 nM
